Measured values from US10550125B2, “Prodrugs of imidazotriazine compounds as CK2 inhibitors” (BRISTOL-MYERS SQUIBB COMPANY, priority 2015, dated 2020).
≈ marks a conversion by molar mass, not a printed value. Where two headings read alike, the source gives them in different places.

Tests used:
CK2A1 = CK2A1 (Homo sapiens (Human), UniProt P68400); test: CK2 kinase assay (CK2A1); format: biochemical; details: recombinant CK2A1
Experimental: (§1) The effectiveness of compounds of the present invention as inhibitors of protein kinases can be readily tested by assays known to those skilled in the art. For example, in vitro protein kinase assays may be conducted with a relevant purified protein kinase and an appropriate synthetic substrate to determine the inhibitory activity of the compounds. […] Reaction mixtures were incubated at 30° C. for 1 hour, and reaction products were captured by binding to phosphocellulose (P81) filter plates. Incorporation of radioactive phosphate into the peptide substrate was determined by liquid scintillation counting. The potency of compounds in inhibiting CK2 is expressed as IC50, defined as the concentrations of compounds required to inhibit the enzymatic activity by 50%.
(§2) The inhibitory activity of the instant compounds may also be measured by recombinant CK2 holoenzyme kinase assays. The assays were performed in U-bottom 384-well plates. The final assay volume was 30 μl prepared from 15 μl additions of enzyme and substrates (fluoresceinated peptide FL-RRRADDSDDDDD-NH2 and ATP) and test compounds in assay buffer (20 mM HEPES pH 7.4, 10 mM MgCl2, 100 mM NaCl, 0.015% Brij35 and 0.25 mM DTT). The reaction was initiated by the combination of bacterially expressed, CK2 α/β or CK2 α′/β holoenzyme with substrates and test compounds. The reaction was incubated at room temperature for 60 minutes and terminated by adding 30 μl of 35 mM EDTA to each sample. The reaction mixture was analyzed on the Caliper LABCHIP® 3000 (Caliper, Hopkinton, Mass.) by electrophoretic separation of the fluorescent substrate and phosphorylated product. Inhibition data were calculated by comparison to no enzyme control reactions for 100% inhibition and vehicle-only reactions for 0% inhibition. The final concentration of reagents in the CK2 α/β assay was 25 μM ATP, 1.5 μM FL-RRRADDSDDDDD-NH2, 50 pM CK2 α/β holoenzyme, and 1.6% DMSO. The final concentration of reagents in the CK2 α′/β assay was 10 μM ATP, 1.5 μM FL-RRRADDSDDDDD-NH2, 100 pM CK2 α′/β holoenzyme, and 1.6% DMSO. Dose response curves were generated to determine the concentration required inhibiting 50% of kinase activity (IC50). Compounds were dissolved at 10 mM in dimethylsulfoxide (DMSO) and evaluated at eleven concentrations. IC50 values were derived by non-linear regression analysis.

CK2A2 = CK2A2 (Homo sapiens (Human), UniProt P19784); test: CK2 kinase assay (CK2A2); format: biochemical; details: recombinant CK2A2
CK2A2, sequence (P19784 whole entry): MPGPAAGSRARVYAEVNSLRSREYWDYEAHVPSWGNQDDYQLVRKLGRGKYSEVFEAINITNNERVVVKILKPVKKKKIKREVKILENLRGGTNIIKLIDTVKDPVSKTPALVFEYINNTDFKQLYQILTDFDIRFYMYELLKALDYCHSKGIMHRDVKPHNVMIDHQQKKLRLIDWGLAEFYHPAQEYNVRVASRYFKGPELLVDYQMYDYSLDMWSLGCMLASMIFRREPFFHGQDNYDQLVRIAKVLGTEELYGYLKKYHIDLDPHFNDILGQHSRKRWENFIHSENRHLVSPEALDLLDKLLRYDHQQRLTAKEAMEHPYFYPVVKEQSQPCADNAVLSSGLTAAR
Experimental: as §1, §2

[1] = Single-dose pharmacokinetics in rats (oral bioavailability); format: in vivo; details: for Prodrug bioavailability in Rats, % F: dose-normalized AUC of parent (Example 1) after oral prodrug vs IV infusion of parent; for Oral Bioavailability in Rats, % F: male Sprague-Dawley rats, ratio of dose-normalized AUC, oral vs IV
Experimental: In a study to determine oral bioavailability in male Sprague-Dawley rats, two groups of animals (N=3 per group, 300 to 350 g) are used. One group (non-fasted) receives the compound by IV infusion (over 10 minutes) via a jugular vein and one group (fasted) receives drug by oral gavage. Serial blood samples (˜0.3 mL) are collected from the jugular vein into tri-potassium ethylenediaminetetraacetic acid (K3EDTA)-containing tubes at 0.167 (for IV), 0.25, 0.5, 1, 3, 5, 7, and 24 hours, post dose and then centrifuged at 4° C. (1500 to 2000×g) to obtain plasma, which is stored at −20° C. until analysis by LC-MS/MS.
The pharmacokinetic parameters were obtained by non-compartmental analysis of plasma concentration (determined by LC/MS/MS) vs. time data (ThermoKinetica Software version 4.4.1). The peak concentration (Cmax) and time for Cmax, Tmax, were recorded directly from experimental observations. The area under the curve from time zero to the last sampling time (AUC0-t) was calculated using a combination of linear and log trapezoidal summations. The total plasma clearance (CLTp), steady-state volume of distribution (Vss), apparent elimination half-life (t½) and mean residence time (MRT) were estimated after IV administration. Estimation of T½ was made using a minimum of 3 time points with quantifiable concentrations.
For non-prodrugs, the absolute oral bioavailability F was estimated as the ratio of dose-normalized AUC values following oral and IV doses.
In case of prodrugs (e.g., Examples 2 and 5), absolute bioavailability F was estimated as the ratio of dose-normalized AUC values of parent (Example 1) upon oral administration of prodrugs (Examples 2 and 5) and IV infusion of parent (Example 1).

[2] = Thermodynamic equilibrium aqueous solubility assay; format: physicochemical; details: for solubility at 24 h: aqueous buffer, thermodynamic from solid
Experimental: Standards Preparation: The calibration standard was prepared by accurately weighing 0.5-0.7 mg of sample in 5 ml of methanol. If the material was not fully soluble in methanol, other solvents such as DMSO or mixed solvents were used.
The solution was sonicated and vortexed for ˜30 seconds. The vials were shaken at 300 rpm at room temperature for 24 hrs. The exact incubation time for a specific prodrug was based on the prior aqueous stability data. If the compound was stable in the buffer up to 24 hrs, then the solubility was measured after 24 hrs, otherwise kinetic solubility data was reported. The final saturated solution was then transferred to a 1.5 mL eppendorf tube and centrifuged for ˜2 min. at 10000 rpms. The supernatant from the saturated solution was transferred to a glass HPLC vial and the solubility was analyzed by HPLC using a four point calibration curve.

pCK2 motif = test: In vivo pharmacodynamic study, pCK2 motif inhibition in SNU-C1 (colon) xenograft tumor model; set-up: species or system mice; details: for % inh. of p-CK2 at 24th hour: oral gavage, SNU-C1 (colon) xenograft in mice
Experimental: pCK2 motif is a putative cellular substrate of CK2 with molecular weight of ˜60 kDa.
To determine extent of pCK2 motif inhibition by test compounds in vivo, SNU-C1 colon tumor cells were inoculated into female BALB/c athymic mice and propagated as subcutaneous xenografts. The dosing solutions of the compound or control were administered to mice with tumors reaching ˜500 mm by oral gavage at the indicated dose levels and schedules. Tumors were collected from control and treated mice at the indicated times and immediately frozen in liquid nitrogen. Frozen tumors were thawed on ice in 5 volumes of TTG buffer (Tris-HCl, pH 7.9, 10% glycerol, 0.02% Tween-20). Tumors were homogenized using a Qiagen TissueLyser II (3×1 min (1/30S)) in Qiagen Tissulyser tubes containing steel beads. Tumor homogenates were clarified by microcentrifugation at 13000 rpm for 10 min. Western blot analysis was performed using 60 μg of protein per lane on 4-15% BioRad SDS-PAGE gels. Blots were probed with an anti-pCK2 motif antibody (mAb #8738 Cell Signaling Technology) and anti-Actin antibody. The pCK2 motif antibody is a purified […] antibody developed by immunizing mice with a degenerate mixture of peptides corresponding to the consesnus phorylation site used by CK2. The intensity of the pCK2 motif band was measured on images obtained from the Licor Odyssey instrument. % pCK2 remaining at each dose was calculated relative to the average intensity of bands from untreated, control mouse tumors.

[3] = 50 mM potassium phosphate buffer, pH 6.5, 50 mM potassium phosphate, read-out: Solubility pH 6.5
[4] = 50 mM sodium acetate buffer, pH 4.0, 50 mM sodium acetate, read-out: Solubility pH 4.0
[5] = simulated gastric fluid, pH 1.0, read-out: Solubility pH 1.0

CK2A1, sequence (P68400 whole entry): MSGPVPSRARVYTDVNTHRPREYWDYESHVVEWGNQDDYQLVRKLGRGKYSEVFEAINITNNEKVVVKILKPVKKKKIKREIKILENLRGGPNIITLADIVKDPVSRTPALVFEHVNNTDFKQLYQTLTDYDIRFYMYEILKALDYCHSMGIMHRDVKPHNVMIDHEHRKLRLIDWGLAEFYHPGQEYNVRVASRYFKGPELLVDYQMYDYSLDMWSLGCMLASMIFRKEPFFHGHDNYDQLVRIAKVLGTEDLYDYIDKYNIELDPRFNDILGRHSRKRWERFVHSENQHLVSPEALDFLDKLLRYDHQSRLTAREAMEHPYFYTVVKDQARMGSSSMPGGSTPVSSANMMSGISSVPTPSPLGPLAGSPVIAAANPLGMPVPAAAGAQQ

## CCNc1nc(N(C(=O)OCOC(=O)Cc2ccc(OP(=O)(O)O)cc2)c2cc(C#N)cc(N3CCN([C@@H](C)C(N)=O)CC3)c2Cl)nn2c(C#N)cnc12 [Example 2, (S)-(((3-(4-(1-amino-1-oxopropan-2-yl)piperazin-1-yl)-2-chloro-5-cyanophenyl)(7-cyano-4-(ethylamino)imidazo[2,1-f][1,2,4]triazin-2-yl)carbamoyl)oxy)methyl 2-(4-(phosphonooxy)phenyl)acetate]
CK2A1
  IC50: 100 to 1000 nM
CK2A2
  IC50: 10 to 100 nM
[1]; rats
  Prodrug bioavailability in Rats, % F: 40 % F
[2]
  solubility compared to the parent compound Example 1 (in words): superior solubility
[2]; [3]
  solubility at 24 h: 835 µg/mL (≈ 1070 µM)
[2]; [4]
  solubility at 24 h: 124 µg/mL (≈ 159 µM)
[2]; [5]
  solubility at 24 h: 242 µg/mL (≈ 309 µM)

## COC(=O)N[C@H]1CCN(c2cc(C#N)cc(Nc3nc(NC4CC4)c4ncc(C#N)n4n3)c2Cl)C[C@@H]1O [174 (WO2014011974), reference compound]
pCK2 motif; 40 mg/kg BID
  % inh. of p-CK2 at 24th hour: 33%/40 mg/kg BID
[1]
  Oral Bioavailability in Rats, % F: 8 % F

## CCNc1nc(N(C(=O)OCOC(=O)/C=C/C(=O)O)c2cc(C#N)cc(N3CCN([C@@H](C)C(N)=O)CC3)c2Cl)nn2c(C#N)cnc12 [Example 3, (S,E)-4-((((3-(4-(1-amino-1-oxopropan-2-yl)piperazin-1-yl)-2-chloro-5-cyanophenyl)(7-cyano-4-(ethylamino)imidazo[2,1-f][1,2,4]triazin-2-yl)carbamoyl)oxy)methoxy)-4-oxobut-2-enoic Acid]
CK2A1
  IC50: 100 to 1000 nM
CK2A2
  IC50: 10 to 100 nM

## CCNc1nc(N(C(=O)OCOC(=O)CC(C)(C)c2c(C)cc(C)cc2OP(=O)(O)O)c2cc(C#N)cc(N3CCN([C@@H](C)C(N)=O)CC3)c2Cl)nn2c(C#N)cnc12 [Example 5, (S)-(((3-(4-(1-amino-1-oxopropan-2-yl)piperazin-1-yl)-2-chloro-5-cyanophenyl)(7-cyano-4-(ethylamino)imidazo[2,1-f][1,2,4]triazin-2-yl)carbamoyl)oxy)methyl 3-(2,4-dimethyl-6-(phosphonooxy)phenyl)-3-methylbutanoate]
CK2A1
  IC50: 100 to 1000 nM
CK2A2
  IC50: 10 to 100 nM
[1]; rats
  Prodrug bioavailability in Rats, % F: 88 % F
[2]
  solubility compared to the parent compound Example 1 (in words): superior solubility
[2]; [3]
  solubility at 24 h: 1340 µg/mL (≈ 1580 µM)
[2]; [4]
  solubility at 24 h: 160 µg/mL (≈ 188 µM)
[2]; [5]
  solubility at 24 h: 253 µg/mL (≈ 297 µM)

## CCNc1nc(N(C(=O)OCOC(=O)CC(C)(C)COP(=O)(O)O)c2cc(C#N)cc(N3CCN([C@@H](C)C(N)=O)CC3)c2Cl)nn2c(C#N)cnc12 [Example 4, (S)-(((3-(4-(1-amino-1-oxopropan-2-yl)piperazin-1-yl)-2-chloro-5-cyanophenyl)(7-cyano-4-(ethylamino)imidazo[2,1-f][1,2,4]triazin-2-yl)carbamoyl)oxy)methyl 3,3-dimethyl-4-(phosphonooxy)butanoate]
CK2A1
  IC50: 10 to 100 nM
CK2A2
  IC50: < 10 nM

## CCNc1nc(Nc2cc(C#N)cc(N3CCN([C@@H](C)C(N)=O)CC3)c2Cl)nn2c(C#N)cnc12 [Example 1, (S)-2-(4-(2-chloro-5-cyano-3-((7-cyano-4-(ethylamino)imidazo[2,1-f][1,2,4]triazin-2-yl)amino)phenyl)piperazin-1-yl)propanamide]
CK2A1
  IC50: < 10 nM
CK2A2
  IC50: < 10 nM
pCK2 motif; 15 mg/kg BID
  % inh. of p-CK2 at 24th hour: 91%/15 mg/kg BID
pCK2 motif; SNU-C1 xenograft in mice, up to 24 hours
  suppression of pCK2 motif levels relative to vehicle control (in words): significantly suppressed
[1]
  Oral Bioavailability in Rats, % F: 68 % F
[1]; rats, oral
  bioavailability in rats compared to Example 174 of WO2014011974 (in words): marked improvement in bioavailability
[2]; [3]
  solubility at 24 h: < 1 µg/mL
[2]; [5]
  solubility at 24 h: 22 µg/mL (≈ 44.5 µM)
